# Legend:
# ECHCG (Barnyardgrass) [1] = test: Preemergence herbicidal evaluation; assay type: in vivo, Echinochloa crus-galli; details: rated 4-5 weeks after treatment
# From the text: (§1) Results of herbicide evaluation are expressed on a rating scale (0-9). The scale is based upon a visual observation of plant stand, vigor, malformation, size, chlorosis and overall plant appearance as compared with a control.
# (§2) The preemergence herbicidal activity of the test compounds of the present invention is exemplified by the following tests in which the seeds of a variety of monocotyledonous and dicotyledonous plants are separately mixed with potting soil and planted on top of approximately one inch of soil in separate pint cups. After planting, the cups are sprayed with the selected aqueous acetone solution containing test compound in sufficient quantity to provide the equivalent of about 0.0156 to 0.500 kg per hectare of test compound per cup. The treated cups are then placed on greenhouse benches, watered and cared for in accordance with conventional greenhouse procedures. From four to five weeks after treatment, the tests are terminated and each cup is examined and rated according to the rating system provided in Example 37.
# (§3) The compounds evaluated are reported by compound number given in Example 37.
# ZEAMX (Corn, Field) [2] = test: Preemergence herbicidal evaluation; assay type: in vivo, Zea mays; details: rated 4-5 weeks after treatment
# Outline: (§4)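 Seeds were mixed with potting soil and planted on about one inch of soil, then sprayed with test compound in aqueous acetone at about 0.0156 to 0.500 kg per hectare. Plants grew under standard greenhouse care and were visually rated 0-9 against untreated controls 4-5 weeks post-treatment.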
# ABUTH (Velvetleaf) [3] = test: Preemergence herbicidal evaluation; assay type: in vivo, Abutilon theophrasti; details: rated 4-5 weeks after treatment
# From the text: as §1, §2, §3
# [4] = system: IPOHE (Morningglory, Ivyleaf); test: Preemergence herbicidal evaluation; assay type: in vivo, Ipomoea hederacea; details: rated 4-5 weeks after treatment
# From the text: as §1, §2, §3
# [5] = system: IPOHE (Morningglory, Ivyleaf); test: Postemergence herbicidal evaluation; assay type: in vivo, Ipomoea hederacea; details: postemergence
# Outline: (§5)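 Young plants, roughly two weeks from seeding, receive the active ingredient as a sprayed dispersion (acetone/water 50/50, 0.5% TWEEN 20) at 40 psi. Doses span about 0.0156 to 0.500 kg/ha. A visual score from 0 to 9 compares treated with control plants four to five weeks on.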
# ORYSAT (Rice, Tebonnet) = test: Postemergence herbicidal evaluation; assay type: in vivo, Oryza sativa, (L.) Tebonnet; details: postemergence
# Outline: as §5
# SETVI (Foxtail, Green) = test: Postemergence herbicidal evaluation; assay type: in vivo, Setaria viridis; details: postemergence
# Outline: as §5
# ABUTH (Velvetleaf) [6] = test: Postemergence herbicidal evaluation; assay type: in vivo, Abutilon theophrasti; details: postemergence
# Outline: as §5
# ECHCG (Barnyardgrass) [7] = test: Postemergence herbicidal evaluation; assay type: in vivo, Echinochloa crus-galli; details: postemergence
# Outline: as §5
# [8] = system: GLXMAW (Soybean, Williams); test: Preemergence herbicidal evaluation; assay type: in vivo, Glycine max, (L.) Merr. cv Williams; details: rated 4-5 weeks after treatment
# From the text: as §1, §2, §3
# [9] = system: TRZAWR (Wheat, Winter, cv Riband); test: Preemergence herbicidal evaluation; assay type: in vivo, Triticum aestivum; details: rated 4-5 weeks after treatment
# Outline: as §4
# [10] = system: CHEAL (Lambsquarters, Common); test: Postemergence herbicidal evaluation; assay type: in vivo, Chenopodium album; details: postemergence
# Outline: as §5
# ZEAMX (Corn, Field) [11] = test: Postemergence herbicidal evaluation; assay type: in vivo, Zea mays; details: postemergence
# Outline: as §5
# CASOB (Sicklepod) = test: Preemergence herbicidal evaluation; assay type: in vivo, Cassia obtusifolia; details: rated 4-5 weeks after treatment
# Outline: as §4
# [12] = system: CHEAL (Lambsquarters, Common); test: Preemergence herbicidal evaluation; assay type: in vivo, Chenopodium album; details: rated 4-5 weeks after treatment
# From the text: as §1, §2, §3
smiles,measurement,setting,value
"COCCOC(=O)CN1C(=O)CSC1=Nc1cc(-n2c(=O)cc(C(F)(F)F)n(C)c2=O)c(F)cc1Cl [Compound 107, 2-Methoxyethyl 2-{{2-chloro-5-[3,6-dihydro-3-methyl-2,6-dioxo-4-(trifluoromethyl)-1(2H)-pyrimidinyl]-4-fluorophenyl}imino}-4-oxo-3-thiazolidineacetate]",Preemergence herbicidal rating ECHCG,ECHCG (Barnyardgrass) [1]; rate 0.0313 kg/ha,0.0
same,Preemergence herbicidal rating ECHCG,ECHCG (Barnyardgrass) [1]; rate 0.0625 kg/ha,0.0
same,Preemergence herbicidal rating ECHCG,ECHCG (Barnyardgrass) [1]; rate 0.1250 kg/ha,0.0
same,Preemergence herbicidal rating ECHCG,ECHCG (Barnyardgrass) [1]; rate 0.2500 kg/ha,1.0
same,Preemergence herbicidal rating ZEAMX,"ZEAMX (Corn, Field) [2]; rate 0.0313 kg/ha",0.0
same,Preemergence herbicidal rating ZEAMX,"ZEAMX (Corn, Field) [2]; rate 0.0625 kg/ha",0.0
same,Preemergence herbicidal rating ZEAMX,"ZEAMX (Corn, Field) [2]; rate 0.1250 kg/ha",1.0
same,Preemergence herbicidal rating ZEAMX,"ZEAMX (Corn, Field) [2]; rate 0.2500 kg/ha",4.0
same,Preemergence herbicidal rating ABUTH,ABUTH (Velvetleaf) [3]; rate 0.0313 kg/ha,0.0
same,Preemergence herbicidal rating ABUTH,ABUTH (Velvetleaf) [3]; rate 0.0625 kg/ha,1.0
same,Preemergence herbicidal rating ABUTH,ABUTH (Velvetleaf) [3]; rate 0.1250 kg/ha,9.0
same,Preemergence herbicidal rating ABUTH,ABUTH (Velvetleaf) [3]; rate 0.2500 kg/ha,9.0
same,Preemergence herbicidal rating IPOHE,[4]; rate 0.0313 kg/ha,0.0
same,Preemergence herbicidal rating IPOHE,[4]; rate 0.0625 kg/ha,0.0
same,Preemergence herbicidal rating IPOHE,[4]; rate 0.1250 kg/ha,1.0
same,Preemergence herbicidal rating IPOHE,[4]; rate 0.2500 kg/ha,7.0
same,herbicidal rating IPOHE,[5]; rate 0.0158 kg/ha,9.0
same,herbicidal rating IPOHE,[5]; rate 0.0315 kg/ha,7.0
same,herbicidal rating IPOHE,[5]; rate 0.0630 kg/ha,9.0
same,herbicidal rating ORYSAT,"ORYSAT (Rice, Tebonnet); rate 0.0158 kg/ha",2.0
same,herbicidal rating ORYSAT,"ORYSAT (Rice, Tebonnet); rate 0.0315 kg/ha",2.0
same,herbicidal rating ORYSAT,"ORYSAT (Rice, Tebonnet); rate 0.0630 kg/ha",4.5
same,herbicidal rating SETVI,"SETVI (Foxtail, Green); rate 0.0158 kg/ha",1.0
same,herbicidal rating SETVI,"SETVI (Foxtail, Green); rate 0.0315 kg/ha",9.0
same,herbicidal rating SETVI,"SETVI (Foxtail, Green); rate 0.0630 kg/ha",9.0
same,herbicidal rating ABUTH,ABUTH (Velvetleaf) [6]; rate 0.0158 kg/ha,9.0
same,herbicidal rating ABUTH,ABUTH (Velvetleaf) [6]; rate 0.0315 kg/ha,7.0
same,herbicidal rating ABUTH,ABUTH (Velvetleaf) [6]; rate 0.0630 kg/ha,9.0
same,herbicidal rating ECHCG,ECHCG (Barnyardgrass) [7]; rate 0.0158 kg/ha,1.0
same,herbicidal rating ECHCG,ECHCG (Barnyardgrass) [7]; rate 0.0315 kg/ha,1.0
same,herbicidal rating ECHCG,ECHCG (Barnyardgrass) [7]; rate 0.0630 kg/ha,3.0
same,Preemergence herbicidal rating GLXMAW,[8]; rate 0.0313 kg/ha,0.0
same,Preemergence herbicidal rating GLXMAW,[8]; rate 0.0625 kg/ha,1.0
same,Preemergence herbicidal rating GLXMAW,[8]; rate 0.1250 kg/ha,2.0
same,Preemergence herbicidal rating GLXMAW,[8]; rate 0.2500 kg/ha,3.0
same,Preemergence herbicidal rating TRZAWR,[9]; rate 0.0313 kg/ha,0.0
same,Preemergence herbicidal rating TRZAWR,[9]; rate 0.0625 kg/ha,0.0
same,Preemergence herbicidal rating TRZAWR,[9]; rate 0.1250 kg/ha,0.0
same,Preemergence herbicidal rating TRZAWR,[9]; rate 0.2500 kg/ha,4.0
same,herbicidal rating CHEAL,[10]; rate 0.0158 kg/ha,2.0
same,herbicidal rating CHEAL,[10]; rate 0.0315 kg/ha,2.0
same,herbicidal rating CHEAL,[10]; rate 0.0630 kg/ha,1.0
same,herbicidal rating ZEAMX,"ZEAMX (Corn, Field) [11]; rate 0.0158 kg/ha",4.0
same,herbicidal rating ZEAMX,"ZEAMX (Corn, Field) [11]; rate 0.0315 kg/ha",6.0
same,herbicidal rating ZEAMX,"ZEAMX (Corn, Field) [11]; rate 0.0630 kg/ha",7.0
same,Preemergence herbicidal rating CASOB,CASOB (Sicklepod); rate 0.0313 kg/ha,0.0
same,Preemergence herbicidal rating CASOB,CASOB (Sicklepod); rate 0.0625 kg/ha,0.0
same,Preemergence herbicidal rating CASOB,CASOB (Sicklepod); rate 0.1250 kg/ha,0.0
same,Preemergence herbicidal rating CASOB,CASOB (Sicklepod); rate 0.2500 kg/ha,1.0
same,Preemergence herbicidal rating CHEAL,[12]; rate 0.0625 kg/ha,6.0
same,Preemergence herbicidal rating CHEAL,[12]; rate 0.1250 kg/ha,9.0
same,Preemergence herbicidal rating CHEAL,[12]; rate 0.2500 kg/ha,9.0
CCCCOC(=O)CN1C(=O)CSC1=Nc1cc(-n2c(=O)cc(C(F)(F)F)n(C)c2=O)c(F)cc1Cl [Compound 111],Preemergence herbicidal rating ECHCG,ECHCG (Barnyardgrass) [1]; rate 0.0156 kg/ha,0.0
same,Preemergence herbicidal rating ECHCG,ECHCG (Barnyardgrass) [1]; rate 0.0313 kg/ha,0.0
same,Preemergence herbicidal rating ECHCG,ECHCG (Barnyardgrass) [1]; rate 0.0625 kg/ha,0.0
same,Preemergence herbicidal rating ECHCG,ECHCG (Barnyardgrass) [1]; rate 0.1250 kg/ha,0.0
same,Preemergence herbicidal rating ECHCG,ECHCG (Barnyardgrass) [1]; rate 0.2500 kg/ha,4.0
same,Preemergence herbicidal rating ZEAMX,"ZEAMX (Corn, Field) [2]; rate 0.0156 kg/ha",0.0
same,Preemergence herbicidal rating ZEAMX,"ZEAMX (Corn, Field) [2]; rate 0.0313 kg/ha",0.0
same,Preemergence herbicidal rating ZEAMX,"ZEAMX (Corn, Field) [2]; rate 0.0625 kg/ha",0.0
same,Preemergence herbicidal rating ZEAMX,"ZEAMX (Corn, Field) [2]; rate 0.1250 kg/ha",4.0
same,Preemergence herbicidal rating ZEAMX,"ZEAMX (Corn, Field) [2]; rate 0.2500 kg/ha",4.0
same,Preemergence herbicidal rating ABUTH,ABUTH (Velvetleaf) [3]; rate 0.0156 kg/ha,1.0
same,Preemergence herbicidal rating ABUTH,ABUTH (Velvetleaf) [3]; rate 0.0313 kg/ha,0.0
same,Preemergence herbicidal rating ABUTH,ABUTH (Velvetleaf) [3]; rate 0.0625 kg/ha,2.0
same,Preemergence herbicidal rating ABUTH,ABUTH (Velvetleaf) [3]; rate 0.1250 kg/ha,9.0
same,Preemergence herbicidal rating ABUTH,ABUTH (Velvetleaf) [3]; rate 0.2500 kg/ha,9.0
same,Preemergence herbicidal rating IPOHE,[4]; rate 0.0156 kg/ha,0.0
same,Preemergence herbicidal rating IPOHE,[4]; rate 0.0313 kg/ha,0.0
same,Preemergence herbicidal rating IPOHE,[4]; rate 0.0625 kg/ha,0.0
same,Preemergence herbicidal rating IPOHE,[4]; rate 0.1250 kg/ha,9.0
same,Preemergence herbicidal rating IPOHE,[4]; rate 0.2500 kg/ha,7.0
same,herbicidal rating IPOHE,[5]; rate 0.0158 kg/ha,4.0
same,herbicidal rating IPOHE,[5]; rate 0.0315 kg/ha,9.0
same,herbicidal rating IPOHE,[5]; rate 0.0630 kg/ha,9.0
same,herbicidal rating ORYSAT,"ORYSAT (Rice, Tebonnet); rate 0.0158 kg/ha",2.5
same,herbicidal rating ORYSAT,"ORYSAT (Rice, Tebonnet); rate 0.0315 kg/ha",4.5
same,herbicidal rating ORYSAT,"ORYSAT (Rice, Tebonnet); rate 0.0630 kg/ha",4.5
same,herbicidal rating SETVI,"SETVI (Foxtail, Green); rate 0.0158 kg/ha",1.0
same,herbicidal rating SETVI,"SETVI (Foxtail, Green); rate 0.0315 kg/ha",9.0
same,herbicidal rating SETVI,"SETVI (Foxtail, Green); rate 0.0630 kg/ha",9.0
same,herbicidal rating ABUTH,ABUTH (Velvetleaf) [6]; rate 0.0158 kg/ha,7.0
same,herbicidal rating ABUTH,ABUTH (Velvetleaf) [6]; rate 0.0315 kg/ha,9.0
same,herbicidal rating ABUTH,ABUTH (Velvetleaf) [6]; rate 0.0630 kg/ha,9.0
same,herbicidal rating ECHCG,ECHCG (Barnyardgrass) [7]; rate 0.0158 kg/ha,3.0
same,herbicidal rating ECHCG,ECHCG (Barnyardgrass) [7]; rate 0.0315 kg/ha,4.0
same,herbicidal rating ECHCG,ECHCG (Barnyardgrass) [7]; rate 0.0630 kg/ha,9.0
same,Preemergence herbicidal rating GLXMAW,[8]; rate 0.0156 kg/ha,1.0
same,Preemergence herbicidal rating GLXMAW,[8]; rate 0.0313 kg/ha,1.0
same,Preemergence herbicidal rating GLXMAW,[8]; rate 0.0625 kg/ha,1.0
same,Preemergence herbicidal rating GLXMAW,[8]; rate 0.1250 kg/ha,3.0
same,Preemergence herbicidal rating GLXMAW,[8]; rate 0.2500 kg/ha,4.0
same,Preemergence herbicidal rating TRZAWR,[9]; rate 0.0156 kg/ha,0.0
same,Preemergence herbicidal rating TRZAWR,[9]; rate 0.0313 kg/ha,0.0
same,Preemergence herbicidal rating TRZAWR,[9]; rate 0.0625 kg/ha,0.0
same,Preemergence herbicidal rating TRZAWR,[9]; rate 0.1250 kg/ha,1.0
same,Preemergence herbicidal rating TRZAWR,[9]; rate 0.2500 kg/ha,4.0
same,herbicidal rating CHEAL,[10]; rate 0.0158 kg/ha,2.0
same,herbicidal rating CHEAL,[10]; rate 0.0315 kg/ha,6.0
same,herbicidal rating CHEAL,[10]; rate 0.0630 kg/ha,7.0
same,herbicidal rating ZEAMX,"ZEAMX (Corn, Field) [11]; rate 0.0158 kg/ha",6.5
same,herbicidal rating ZEAMX,"ZEAMX (Corn, Field) [11]; rate 0.0315 kg/ha",6.5
same,herbicidal rating ZEAMX,"ZEAMX (Corn, Field) [11]; rate 0.0630 kg/ha",7.0
same,Preemergence herbicidal rating CASOB,CASOB (Sicklepod); rate 0.0156 kg/ha,0.0
same,Preemergence herbicidal rating CASOB,CASOB (Sicklepod); rate 0.0313 kg/ha,0.0
same,Preemergence herbicidal rating CASOB,CASOB (Sicklepod); rate 0.0625 kg/ha,1.0
same,Preemergence herbicidal rating CASOB,CASOB (Sicklepod); rate 0.1250 kg/ha,1.0
same,Preemergence herbicidal rating CASOB,CASOB (Sicklepod); rate 0.2500 kg/ha,9.0
same,Preemergence herbicidal rating CHEAL,[12]; rate 0.0313 kg/ha,0.0
same,Preemergence herbicidal rating CHEAL,[12]; rate 0.0625 kg/ha,9.0
same,Preemergence herbicidal rating CHEAL,[12]; rate 0.1250 kg/ha,9.0
same,Preemergence herbicidal rating CHEAL,[12]; rate 0.2500 kg/ha,9.0
